What was measured:
Format in all cases: in vivo
Conditions in all cases: 312 h, evaluated after 13 days, 100=total damage to plant, 0=no damage to plant
[1] = tested on: Euphorbia heterophylla (EPHHL); test: Pre-emergence biological efficacy
Description: (§1) Seeds of weeds and/or crops were sown in standard soil in pots (Amaranthus palmeri (AMAPA), Lolium perenne (LOLPE), Euphorbia heterophylla (EPHHL), Ipomoea hederacea (IPOHE), Setaria faberi (SETFA), Echinochloa crus-galli (ECHCG)). After cultivation for one day under controlled conditions in a glasshouse (at 24/19° C., day/night; 16 hours light), the plants were sprayed with an aqueous spray solution derived from the formulation of the technical active ingredient in a small amount of acetone and a special solvent and emulsifier mixture referred to as IF50 (11.12% Emulsogen EL360™+44.44% N-methylpyrrolidone+44.44% Dowanol DPM glycol ether), to create a 50 g/l solution which was then diluted using 0.2% Genapol XO80 as diluent to give the desired final dose of test compound.
(§2) The test plants were then grown under controlled conditions in the glasshouse (at 24/18° C., day/night; 15 hours light; 50% humidity) and watered twice daily. After 13 days the test was evaluated (100=total damage to plant; 0=no damage to plant).

[2] = tested on: Lolium perenne (LOLPE); test: Pre-emergence biological efficacy
Description: as §1, §2

[3] = tested on: Setaria faberi (SETFA); test: Pre-emergence biological efficacy
Description: as §1, §2

[4] = tested on: Ipomoea hederacea (IPOHE); test: Pre-emergence biological efficacy
Description: as §1, §2

[5] = tested on: Amaranthus palmeri (AMAPA); test: Pre-emergence biological efficacy
Description: as §1, §2

[6] = tested on: Echinochloa crus-galli (ECHCG); test: Pre-emergence biological efficacy
Description: as §1, §2

[7] = tested on: Euphorbia heterophylla (EPHHL); test: Post-emergence biological efficacy
Description: as §1, with “Chenopodium album (CHEAL),” for “Lolium perenne (LOLPE),”, “(IPOHE), Eleusine indica (ELEIN), Lolium perenne (LOLPE), Digitaria sanguinalis (DIGSA),” for “(IPOHE),”, “14 days” for “one day”, “compound. The test plants were then grown under controlled conditions in the glasshouse (at 24/18° C., day/night; 15 hours light; 50% humidity) and watered twice daily. After 13 days the test was evaluated (100=total damage to plant; 0=no damage to plant).” for “compound.”

[8] = tested on: Lolium perenne (LOLPE); test: Post-emergence biological efficacy
Description: as §1, with “Chenopodium album (CHEAL),” for “Lolium perenne (LOLPE),”, “(IPOHE), Eleusine indica (ELEIN), Lolium perenne (LOLPE), Digitaria sanguinalis (DIGSA),” for “(IPOHE),”, “14 days” for “one day”, “compound. The test plants were then grown under controlled conditions in the glasshouse (at 24/18° C., day/night; 15 hours light; 50% humidity) and watered twice daily. After 13 days the test was evaluated (100=total damage to plant; 0=no damage to plant).” for “compound.”

[9] = tested on: Eleusine indica (ELEIN); test: Post-emergence biological efficacy
Description: as §1, with “Chenopodium album (CHEAL),” for “Lolium perenne (LOLPE),”, “(IPOHE), Eleusine indica (ELEIN), Lolium perenne (LOLPE), Digitaria sanguinalis (DIGSA),” for “(IPOHE),”, “14 days” for “one day”, “compound. The test plants were then grown under controlled conditions in the glasshouse (at 24/18° C., day/night; 15 hours light; 50% humidity) and watered twice daily. After 13 days the test was evaluated (100=total damage to plant; 0=no damage to plant).” for “compound.”

[10] = tested on: Chenopodium album (CHEAL); test: Post-emergence biological efficacy
Description: as §1, with “Chenopodium album (CHEAL),” for “Lolium perenne (LOLPE),”, “(IPOHE), Eleusine indica (ELEIN), Lolium perenne (LOLPE), Digitaria sanguinalis (DIGSA),” for “(IPOHE),”, “14 days” for “one day”, “compound. The test plants were then grown under controlled conditions in the glasshouse (at 24/18° C., day/night; 15 hours light; 50% humidity) and watered twice daily. After 13 days the test was evaluated (100=total damage to plant; 0=no damage to plant).” for “compound.”

[11] = tested on: Setaria faberi (SETFA); test: Post-emergence biological efficacy
Description: as §1, with “Chenopodium album (CHEAL),” for “Lolium perenne (LOLPE),”, “(IPOHE), Eleusine indica (ELEIN), Lolium perenne (LOLPE), Digitaria sanguinalis (DIGSA),” for “(IPOHE),”, “14 days” for “one day”, “compound. The test plants were then grown under controlled conditions in the glasshouse (at 24/18° C., day/night; 15 hours light; 50% humidity) and watered twice daily. After 13 days the test was evaluated (100=total damage to plant; 0=no damage to plant).” for “compound.”

[12] = tested on: Digitaria sanguinalis (DIGSA); test: Post-emergence biological efficacy
Description: as §1, with “Chenopodium album (CHEAL),” for “Lolium perenne (LOLPE),”, “(IPOHE), Eleusine indica (ELEIN), Lolium perenne (LOLPE), Digitaria sanguinalis (DIGSA),” for “(IPOHE),”, “14 days” for “one day”, “compound. The test plants were then grown under controlled conditions in the glasshouse (at 24/18° C., day/night; 15 hours light; 50% humidity) and watered twice daily. After 13 days the test was evaluated (100=total damage to plant; 0=no damage to plant).” for “compound.”

[13] = tested on: Ipomoea hederacea (IPOHE); test: Post-emergence biological efficacy
Description: as §1, with “Chenopodium album (CHEAL),” for “Lolium perenne (LOLPE),”, “(IPOHE), Eleusine indica (ELEIN), Lolium perenne (LOLPE), Digitaria sanguinalis (DIGSA),” for “(IPOHE),”, “14 days” for “one day”, “compound. The test plants were then grown under controlled conditions in the glasshouse (at 24/18° C., day/night; 15 hours light; 50% humidity) and watered twice daily. After 13 days the test was evaluated (100=total damage to plant; 0=no damage to plant).” for “compound.”

[14] = tested on: Amaranthus palmeri (AMAPA); test: Post-emergence biological efficacy
Description: as §1, with “Chenopodium album (CHEAL),” for “Lolium perenne (LOLPE),”, “(IPOHE), Eleusine indica (ELEIN), Lolium perenne (LOLPE), Digitaria sanguinalis (DIGSA),” for “(IPOHE),”, “14 days” for “one day”, “compound. The test plants were then grown under controlled conditions in the glasshouse (at 24/18° C., day/night; 15 hours light; 50% humidity) and watered twice daily. After 13 days the test was evaluated (100=total damage to plant; 0=no damage to plant).” for “compound.”

[15] = tested on: Echinochloa crus-galli (ECHCG); test: Post-emergence biological efficacy
Description: as §1, with “Chenopodium album (CHEAL),” for “Lolium perenne (LOLPE),”, “(IPOHE), Eleusine indica (ELEIN), Lolium perenne (LOLPE), Digitaria sanguinalis (DIGSA),” for “(IPOHE),”, “14 days” for “one day”, “compound. The test plants were then grown under controlled conditions in the glasshouse (at 24/18° C., day/night; 15 hours light; 50% humidity) and watered twice daily. After 13 days the test was evaluated (100=total damage to plant; 0=no damage to plant).” for “compound.”

SMILES	pest or weed control at 250 g/ha [1] [%]	pest or weed control at 250 g/ha [2] [%]	pest or weed control at 250 g/ha [3] [%]	pest or weed control at 250 g/ha [4] [%]	pest or weed control at 250 g/ha [5] [%]	pest or weed control at 250 g/ha [6] [%]	pest or weed control at 250 g/ha [7] [%]	pest or weed control at 250 g/ha [8] [%]	pest or weed control at 250 g/ha [9] [%]	pest or weed control at 250 g/ha [10] [%]	pest or weed control at 250 g/ha [11] [%]	pest or weed control at 250 g/ha [12] [%]	pest or weed control at 250 g/ha [13] [%]	pest or weed control at 250 g/ha [14] [%]	pest or weed control at 250 g/ha [15] [%]
CCOC(=O)[C@H]1C[C@@H](OC(=O)c2cc(-n3c(=O)n(C)c(=S)n(C)c3=O)c(F)cc2Cl)C1 [1-981 (cis), (cis)-(3-Ethoxycarbonylcyclobutyl) 2-chloro-5-(3,5-dimethyl-2,6-dioxo-4-thioxo-1,3,5-triazinan-1-yl)-4-fluoro-benzoate]	50	80	50	70	100	100	60	70	50	100	100	50	50	80	80
CCOC(=O)COC(=O)c1cc(-n2c(=O)n(C)c(=S)n(C)c2=O)c(F)cc1Cl [Compound 1-12, (2-ethoxy-2-oxo-ethyl]-2-chloro-5-(3,5-dimethyl-2,6-dioxo-4-thioxo-1,3,5-triazinan-1-yl)-4-fluoro-benzoate]	90	90	80	80	100	90	100	100	100	100	100	100	100	100	100
COC(=O)CNC(=O)c1cc(-n2c(=O)n(C)c(=S)n(C)c2=O)c(F)cc1Cl [Compound 1-35, Methyl 2-[[2-chloro-5-(3,5-dimethyl-2,6-dioxo-4-thioxo-1,3,5-triazinan-1-yl)-4-fluoro-benzoyl]amino]acetate]	40	70	10	0	30	80	70	10	40	20	40	40	50	30	40
CCOC(=O)[C@H](C)OC(=O)c1cc(-n2c(=O)n(C)c(=S)n(C)c2=O)c(F)cc1Cl [Compound 1-63 (S-enantiomer), [(1S)-2-ethoxy-1-methyl-2-oxo-ethyl]-2-chloro-5-(3,5-dimethyl-2,6-dioxo-4-thioxo-1,3,5-triazinan-1-yl)-4-fluoro-benzoate]	90	90	80	60	100	100	100	100	100	100	100	100	100	100	100
CCOC(=O)C(CC)OC(=O)c1cc(-n2c(=O)n(C)c(=S)n(C)c2=O)c(F)cc1Cl (stereo not shown) [Compound 1-114, 1-Ethoxycarbonylpropyl 2-chloro-5-(3,5-dimethyl-2,6-dioxo-4-thioxo-1,3,5-triazinan-1-yl)-4-fluoro-benzoate]	40	70	10	10	100	100	70	30	20	70	30	20	40	20	60
CCNC(=O)C(C)(C)OC(=O)c1cc(-n2c(=O)n(C)c(=S)n(C)c2=O)c(F)cc1Cl [Compound 1-168, [2-(ethylamino)-1,1-dimethyl-2-oxo-ethyl] 2-chloro-5-(3,5-dimethyl-2,6-dioxo-4-thioxo-1,3,5-triazinan-1-yl)-4-fluoro-benzoate]	100	100	100	90	100	100	100	100	100	100	100	100	100	100	100
CCOC(=O)C1(NC(=O)c2cc(-n3c(=O)n(C)c(=S)n(C)c3=O)c(F)cc2Cl)CC1 [Compound 1-240, ethyl 1-[[2-chloro-5-(3,5-dimethyl-2,6-dioxo-4-thioxo-1,3,5-triazinan-1-yl)-4-fluoro-benzoyl]amino]cyclopropanecarboxylate]	100	30	70	10	100	30	100	90	100	100	80	70	60	100	30
CCOC(=O)C1(N(C)C(=O)c2cc(-n3c(=O)n(C)c(=S)n(C)c3=O)c(F)cc2Cl)CC1 [Compound 1-252, Ethyl 1-[[2-chloro-5-(3,5-dimethyl-2,6-dioxo-4-thioxo-1,3,5-triazinan-1-yl)-4-fluoro-benzoyl]-methyl-amino]cyclopropanecarboxylate]					100		40	40	50	70	0	0	30	50	0
CCOC(=O)CCNC(=O)c1cc(-n2c(=O)n(C)c(=S)n(C)c2=O)c(F)cc1Cl [Compound 1-342, Ethyl 3-[[2-chloro-5-(3,5-dimethyl-2,6-dioxo-4-thioxo-1,3,5-triazinan-1-yl)-4-fluoro-benzoyl]amino]propanoate]	90	70	80	60	80	90	40	20	10	30	80	50	70	30	80

Reference: patent publication US20250127170A1, “TRIAZINE HERBICIDAL COMPOUNDS” (SYNGENTA CROP PROTECTION AG, priority 2021, published 2025)
